Where only a bound is given, the exact number is not on record here.

This assay has as its system HCV Huh-luc/neo-ET replicon cells. The assay is described as follows: Luciferase-Based HCV Replicon Assay (EC50 (1b)). The assay is classed as cell-based. The note with it: Hepatitis C virus, 72 hours exposure, luciferase activity. The method, boiled down:
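EC50 (1b) derived from % inhibition of luciferase signal relative to untreated cells, background set by 100 nM BILN-2061 (protease inhibitor). Triplicate dose series added to replicon cells 24 h post-seeding; luminescence measured after 72 h compound exposure.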
Turning to `CS(=O)(=O)NCc1csc2c1S(=O)(=O)N=C(C1=C(O)[C@@H]3CCC[C@@H]3N(Cc3ccc(F)c(F)c3F)C1=O)N2` [Example 115, (4aR,7aS)-N-{3-[4-Hydroxy-2-oxo-1-(2,3,4-trifluoro-benzyl)-2,4a,5,6,7,7a-hexahydro-1H-[1]pyrindin-3-yl]-1,1-dioxo-1,4-dihydro-1λ^6-thieno[2,3-e][1,2,4]thiadiazin-7-ylmethyl}-methanesulfonamide], the concentration giving a half-maximal response (EC50) (commonly the concentration needed to bring the measured effect to its halfway point) was 100 to 1000 nM.

In turn, `CS(=O)(=O)NCc1csc2c1S(=O)(=O)N=C(C1=C(O)[C@@H]3[C@H]4CC[C@H](C4)[C@@H]3N(CCC3CCC3)C1=O)N2` [Example 26, N-{3-[(1R,2S,7R,8S)-3-(2-Cyclobutyl-ethyl)-6-hydroxy-4-oxo-3-aza-tricyclo[6.2.1.0^2,7]undec-5-en-5-yl]-1,1-dioxo-1,4-dihydro-1λ^6-thieno[2,3-e][1,2,4]thiadiazin-7-ylmethyl}-methanesulfonamide] registered an EC50 of 20 to 100 nM.

`CC(C)(C)C1CN(Cc2ccc(F)cc2)C(=O)C(C2=NS(=O)(=O)c3c(CNS(C)(=O)=O)csc3N2)=C1O` (racemic) [Example 14, rac-N-{3-[5-tert-Butyl-1-(4-fluoro-benzyl)-4-hydroxy-2-oxo-1,2,5,6-tetrahydro-pyridin-3-yl]-1,1-dioxo-1,4-dihydro-1λ^6-thieno[2,3-e][1,2,4]thiadiazin-7-ylmethyl}-methanesulfonamide] had an EC50 of 5 to 20 nM.

As to `CS(=O)(=O)NCc1csc2c1S(=O)(=O)N=C(C1=C(O)C3C4C=CC(C4)C3N(Cc3ccc(F)cc3)C1=O)N2` (racemic) [Example 47, (rac-di-exo)-N-{3-[3-(4-Fluoro-benzyl)-6-hydroxy-4-oxo-3-aza-tricyclo[6.2.1.0^2,7]undeca-5,9-dien-5-yl]-1,1-dioxo-1,4-dihydro-1λ^6-thieno[2,3-e][1,2,4]thiadiazin-7-ylmethyl}-methanesulfonamide], the EC50 is ≤ 5 nM.

`CC(C)(C)CCN1C(=O)C(C2=NS(=O)(=O)c3c(CNS(C)(=O)=O)csc3N2)=C(O)[C@@H]2[C@H]3CC[C@H](C3)[C@@H]21` [Example 67, N-{3-[(1R,2S,7R,8S)-3-(3,3-Dimethyl-butyl)-6-hydroxy-4-oxo-3-aza-tricyclo[6.2.1.0^2,7]undec-5-en-5-yl]-1,1-dioxo-1,4-dihydro-1λ^6-thieno[2,3-e][1,2,4]thiadiazin-7-ylmethyl}-methanesulfonamide] registered an EC50 of 5 to 20 nM.

Take `Cc1cc(CN2C(=O)C(C3=NS(=O)(=O)c4c(CNS(C)(=O)=O)csc4N3)=C(O)C3CCCCCC32)ccc1F` (racemic) [Example 139, (rac-cis)-N-{3-[1-(4-Fluoro-3-methyl-benzyl)-4-hydroxy-2-oxo-2,4a,5,6,7,8,9,9a-octahydro-1H-cyclohepta[b]pyridin-3-yl]-1,1-dioxo-1,4-dihydro-1λ^6-thieno[2,3-e][1,2,4]thiadiazin-7-ylmethyl}-methanesulfonamide]: the EC50 is > 1000 nM.

In turn, `CS(=O)(=O)NCc1csc2c1S(=O)(=O)N=C(C1=C(O)C3CCCCC3N(Cc3ccc(F)cc3Cl)C1=O)N2` (racemic) [Example 117, (rac-cis)-N-{3-[1-(2-Chloro-4-fluoro-benzyl)-4-hydroxy-2-oxo-1,2,4a,5,6,7,8,8a-octahydro-quinolin-3-yl]-1,1-dioxo-1,4-dihydro-1λ^6-thieno[2,3-e][1,2,4]thiadiazin-7-ylmethyl}-methanesulfonamide] had an EC50 of 100 to 1000 nM.

Take `CS(=O)(=O)NCc1csc2c1S(=O)(=O)N=C(C1=C(O)CC(C3CC3)N(Cc3ccc(F)cc3)C1=O)N2` (racemic) [Example 4, rac-N-{3-[6-Cyclopropyl-1-(4-fluoro-benzyl)-4-hydroxy-2-oxo-1,2,5,6-tetrahydro-pyridin-3-yl]-1,1-dioxo-1,4-dihydro-1λ^6-thieno[2,3-e][1,2,4]thiadiazin-7-ylmethyl}-methanesulfonamide]: the EC50 lay within 100 to 1000 nM.

`CS(=O)(=O)NCc1csc2c1S(=O)(=O)N=C(C1=C(O)[C@@H]3[C@H]4CC[C@H](C4)[C@@H]3N(Cc3cc(F)c(F)c(F)c3)C1=O)N2` [Example 54, N-{3-[(1R,2S,7R,8S)-6-Hydroxy-4-oxo-3-(3,4,5-trifluoro-benzyl)-3-aza-tricyclo[6.2.1.0^2,7]undec-5-en-5-yl]-1,1-dioxo-1,4-dihydro-1λ^6-thieno[2,3-e][1,2,4]thiadiazin-7-ylmethyl}-methanesulfonamide] registered an EC50 of 5 to 20 nM.

`COc1cc(CN2C(=O)C(C3=NS(=O)(=O)c4c(CNS(C)(=O)=O)csc4N3)=C(O)[C@@H]3[C@H]4CC[C@H](C4)[C@@H]32)ccc1F` [Example 38, N-{3-[(1R,2S,7R,8S)-3-(4-Fluoro-3-methoxy-benzyl)-6-hydroxy-4-oxo-3-aza-tricyclo[6.2.1.0^2,7]undec-5-en-5-yl]-1,1-dioxo-1,4-dihydro-1λ^6-thieno[2,3-e][1,2,4]thiadiazin-7-ylmethyl}-methanesulfonamide] showed an EC50 of 5 to 20 nM.

As to `COc1ccc(CN2C(=O)C(C3=NS(=O)(=O)c4c(CNS(C)(=O)=O)csc4N3)=C(O)[C@@H]3[C@@H]4CC[C@@H](C4)[C@@H]32)c(OC)c1` [Example 73, N-{3-[(1S,2S,7R,8R)-3-(2,4-Dimethoxy-benzyl)-6-hydroxy-4-oxo-3-aza-tricyclo[6.2.1.0^2,7]undec-5-en-5-yl]-1,1-dioxo-1,4-dihydro-1λ^6-thieno[2,3-e][1,2,4]thiadiazin-7-ylmethyl}-methanesulfonamide], the EC50 was > 1000 nM.

`COc1cc(CN2C(=O)C(C3=NS(=O)(=O)c4c(CNS(C)(=O)=O)csc4N3)=C(O)[C@@H]3C4CCC(CC4)[C@@H]32)ccc1F` [Example 36, N-{3-[(2S,7R)-3-(4-Fluoro-3-methoxy-benzyl)-6-hydroxy-4-oxo-3-aza-tricyclo[6.2.2.0^2,7]dodec-5-en-5-yl]-1,1-dioxo-1,4-dihydro-1λ^6-thieno[2,3-e][1,2,4]thiadiazin-7-ylmethyl}-methanesulfonamide]: the EC50 is ≤ 5 nM.

On to `CS(=O)(=O)NCc1csc2c1S(=O)(=O)N=C(C1=C(O)[C@@H]3C4CCC(CC4)[C@@H]3NC1=O)N2` [Example 82, N-[3-((2S,7R)-6-Hydroxy-4-oxo-3-aza-tricyclo[6.2.2.0^2,7]dodec-5-en-5-yl)-1,1-dioxo-1,4-dihydro-1λ^6-thieno[2,3-e][1,2,4]thiadiazin-7-ylmethyl]-methanesulfonamide], for which the EC50 was > 1000 nM.

As to `CS(=O)(=O)NCc1csc2c1S(=O)(=O)N=C(C1=C(O)C3CCCCCC3N(Cc3ccc(F)cc3)C1=O)N2` (racemic) [Example 120, (rac-cis)-N-{3-[1-(4-Fluoro-benzyl)-4-hydroxy-2-oxo-2,4a,5,6,7,8,9,9a-octahydro-1H-cyclohepta[b]pyridin-3-yl]-1,1-dioxo-1,4-dihydro-1λ^6-thieno[2,3-e][1,2,4]thiadiazin-7-ylmethyl}-methanesulfonamide], the EC50 was in the range of 20 to 100 nM.

As to `Cc1cc(CN2C(=O)C(C3=NS(=O)(=O)c4c(CNS(C)(=O)=O)csc4N3)=C(O)C3CCCCC32)ccc1F` (racemic) [Example 131, (rac-cis)-N-{3-[1-(4-Fluoro-3-methyl-benzyl)-4-hydroxy-2-oxo-1,2,4a,5,6,7,8,8a-octahydro-quinolin-3-yl]-1,1-dioxo-1,4-dihydro-1λ^6-thieno[2,3-e][1,2,4]thiadiazin-7-ylmethyl}-methanesulfonamide], the EC50 lay in the range of 100 to 1000 nM.

In turn, `CS(=O)(=O)NCc1csc2c1S(=O)(=O)N=C(C1=C(O)[C@@H]3[C@H]4CC[C@H](C4)[C@@H]3N(CCC3CCCC3)C1=O)N2` [Example 30, N-{3-[(1R,2S,7R,8S)-3-(2-Cyclopentyl-ethyl)-6-hydroxy-4-oxo-3-aza-tricyclo[6.2.1.0^2,7]undec-5-en-5-yl]-1,1-dioxo-1,4-dihydro-1λ^6-thieno[2,3-e][1,2,4]thiadiazin-7-ylmethyl}-methanesulfonamide] had an EC50 of 20 to 100 nM.

Molecule `CS(=O)(=O)NCc1csc2c1S(=O)(=O)N=C(C1=C(O)[C@@H]3CCC[C@@H]3N(Cc3ccc(F)c(F)c3)C1=O)N2` [Example 125, (4aR,7aS)-N-{3-[1-(3,4-Difluoro-benzyl)-4-hydroxy-2-oxo-2,4a,5,6,7,7a-hexahydro-1H-[1]pyrindin-3-yl]-1,1-dioxo-1,4-dihydro-1λ^6-thieno[2,3-e][1,2,4]thiadiazin-7-ylmethyl}-methanesulfonamide] displayed a half-maximal effective concentration (EC50) of 20 to 100 nM.

As for `CS(=O)(=O)NCc1csc2c1S(=O)(=O)N=C(C1=C(O)[C@@H]3[C@@H]4CC[C@@H](C4)[C@@H]3N(Cc3cc(F)c(F)c(F)c3)C1=O)N2` [Example 57, N-{3-[(1S,2S,7R,8R)-6-Hydroxy-4-oxo-3-(3,4,5-trifluoro-benzyl)-3-aza-tricyclo[6.2.1.0^2,7]undec-5-en-5-yl]-1,1-dioxo-1,4-dihydro-1λ^6-thieno[2,3-e][1,2,4]thiadiazin-7-ylmethyl}-methanesulfonamide], the EC50 lay in the range of 5 to 20 nM.

Turning to `CS(=O)(=O)NCc1csc2c1S(=O)(=O)N=C(C1=C(O)C3CCCCCC3NC1=O)N2` (racemic) [Example 87, (rac-cis)-N-[3-(4-Hydroxy-2-oxo-2,4a,5,6,7,8,9,9a-octahydro-1H-cyclohepta[b]pyridin-3-yl)-1,1-dioxo-1,4-dihydro-1λ^6-thieno[2,3-e][1,2,4]thiadiazin-7-ylmethyl]-methanesulfonamide], the EC50 is > 1000 nM.

In turn, `CS(=O)(=O)NCc1csc2c1S(=O)(=O)N=C(C1=C(O)C3C4CCC(O4)C3N(Cc3ccccc3)C1=O)N2` (racemic) [Example 45, (rac-di-exo)-N-[3-(3-Benzyl-6-hydroxy-4-oxo-11-oxa-3-aza-tricyclo[6.2.1.0^2,7]undec-5-en-5-yl)-1,1-dioxo-1,4-dihydro-1λ^6-thieno[2,3-e][1,2,4]thiadiazin-7-ylmethyl]-methanesulfonamide] had an EC50 of 20 to 100 nM.

As to `CS(=O)(=O)NCc1csc2c1S(=O)(=O)N=C(C1=C(O)[C@@H]3[C@H]4CC[C@H](C4)[C@@H]3N(Cc3ccc(F)cc3F)C1=O)N2` [Example 49, N-{3-[(1R,2S,7R,8S)-3-(2,4-Difluoro-benzyl)-6-hydroxy-4-oxo-3-aza-tricyclo[6.2.1.0^2,7]undec-5-en-5-yl]-1,1-dioxo-1,4-dihydro-1λ^6-thieno[2,3-e][1,2,4]thiadiazin-7-ylmethyl}-methanesulfonamide], the EC50 was in the range of 20 to 100 nM.

The values above are taken from patent US8222404B2, “[1,2,4]Thiadiazin-3-yl acetic acid compound and methods of making the acetic acid compound” (Anadys Pharmaceuticals, Inc., priority 2008, dated 2012).
